Laboratory results as given in patent US20240016850A1, “CELL-NANOPARTICLE DRUG DELIVERY SYSTEM AND USE OF THE SAME FOR INHIBITING GROWTH OF TUMOR CELLS AND DIAGNOSING TUMOR CELLS” (priority 2022, published 2024).

Experiments:
[1] = Biodistribution in vital organs with different treatment regimens (ICP-MS); assay type: in vivo, rat; conditions: 24th hour post-administration
From the text: In order to determine the differences in biodistribution of the cell-nanoparticle drug delivery system with those of gadodiamide and Gd-FPFNP in vital organs, the orthotopic GBM-bearing rats prepared in section B above were divided into 4 groups, namely, comparative groups 1 and 2 (CG1 and CG2), and experimental groups 1 and 2 (EG1 and EG2), with n=4 per each group. […] At the 24th hour post-administration, the orthotopic GBM-bearing rats in each group were sacrificed, and the blood and tissues from the heart, liver, spleen, lung, kidney, intestine, left brain and right brain were subjected to the pre-processing steps as described in section E above, and then subjected to quantification of elemental gadolinium (Gd) content by ICP-MS system as described in Item 5 of section B in Example 1. The results were expressed as percentage of administered (injected) dose per gram tissue (ID/g), calculated using the aforesaid formula (3), and shown in FIG. 16.

[2] = Gd3+ release from gadodiamide and Gd-FPFNP (dialysis, Xylenol orange); assay type: physicochemical; conditions: 24th hour; 1.05 mM gadodiamide; PBS, 37° C.
Protocol: In order to monitor the in vitro release of gadolinium(III) ions (Gd^3+) from gadodiamide and Gd-FPFNP, a respective one of gadodiamide at concentration of 1.05 mM and Gd-FPFNP that was loaded with 1.05 mM of gadodiamide were incubated in DMEM, and then added into a dialysis tube with cellulose membrane having a molecular weight cutoff of 1 kDa, followed by immersing the dialysis tube in 10 mL of PBS and stirring at 37° C. Thereafter, 0.5 mL aliquots of the PBS were taken out at the 3rd hour and 24th hour of stirring, followed by addition of Xylenol orange agent and analysis using a UV-Vis detector conducted according to procedures described by Barge A. et al., in an article entitled “How to determine free Gd and free ligand in solution of Gd chelates. A technical note.” published in Contrast Media Mol. Imaging, 2006, Vol. 1, p. 184-188, so as to determine the amount of Gd^3+ released in vitro.

CNC(=O)CN(CCN(CCN(CC(=O)[O-])CC(=O)NC)CC(=O)[O-])CC(=O)[O-].[Gd+3] [gadodiamide, Gadodiamide]
elemental gadolinium in vital organs [1]: not or hardly detected | concentration of Gd3+ released [2]: 38.6 µM
